Laboratory results published in a melting point compilation (Tetko et al.).

For Cc1cccc(NC(=O)C(C(F)(F)F)(C(F)(F)F)C(F)(F)F)c1, the melting point was 188 °C.
Compound COc1cccc(NC(N)=S)c1 has a melting point of 160 °C.
Work on O=C(O)c1cnn2ccccc12 yielded a melting point of 199 to 201 °C.
For NC(=O)[C@@H]1CCCN1, the melting point was 97 to 102 °C.
CCN(CC)C(=O)c1cccc(C)c1 showed a melting point of -45 °C.
COc1cc(/C=C/[N+](=O)[O-])c([N+](=O)[O-])cc1OC showed a melting point of 168 to 169 °C.
OCc1ccc(-n2ccnc2)cc1 showed a melting point of 87 to 89 °C.
COc1ccc(Br)cc1CO showed a melting point of 68 to 73 °C.
Compound OCc1csc2ccccc12 has a melting point of 49 to 50 °C.
O=Cc1ccc(Br)cc1F showed a melting point of 61 °C.
With CCOC(=O)C1CSCCN1 (stereo unspecified) the melting point was 118 to 121 °C.
In the case of CC(C)N(C1=NC(=Cc2ccccc2)C(=O)N1c1ccccc1)C(C)C, the melting point is reported as 167 °C.
Cn1c(=O)c(C2=NNC(=O)C2=CNc2ccc(Br)cc2)c(O)c2ccccc21 showed a melting point of 293 °C.
Work on Nc1ccccc1C(=O)Nc1ccccc1 yielded a melting point of 132 °C.
CC(=O)Nc1cc(CCNC(=O)c2ccccc2)ccc1CCNC(=O)c1ccccc1 showed a melting point of 176 °C.
Nc1cc(Cl)nc(N)n1 gave a melting point of 201 °C.
Work on Cc1cc(N=Nc2ccc(N=Nc3ccccc3)cc2)c(C(C)C)cc1N=Nc1ccc(N=Nc2ccccc2)cc1 yielded a melting point of 226 °C.
For CC(c1ccc(OC(F)=C(F)F)cc1)(c1ccc(OC(F)=C(F)F)cc1)c1ccc(OC(F)=C(F)F)cc1, the melting point was 31 to 32 °C.
In the case of N#Cc1c(N)sc2c1CCCC2, the melting point is reported as 142 °C.
With CC(=O)Oc1ccccc1/C=C/c1ccccc1 the melting point was 56 °C.
Work on CC(C)C1OC(=O)C2CCC1(C)OC2(C)C (stereo unspecified) yielded a melting point of 120 °C.
O=C(O)c1sc(Br)c2c1OCCO2 gave a melting point of 150 °C.
OCc1ccc2sccc2c1 showed a melting point of 91 to 92 °C.
Work on O=C(CCCCl)c1ccc(Cl)cc1 yielded a melting point of 30 °C.
O=S(=O)(O)CCCNC1CCCCC1 showed a melting point of 324 °C.
In the case of CSC(=NC#N)Nc1ccccc1, the melting point is reported as 185 to 186 °C.
Work on O=C(NO)OCc1ccccc1 yielded a melting point of 68 °C.
O=C(C(Br)Br)C(Br)(Br)Br showed a melting point of 79.5 °C.
With Nc1ncc(Br)cn1 the melting point was 239 to 244 °C.
For Oc1c(Cl)cc(F)cc1Cl, the melting point was 49 to 52 °C.
For O=C(O)c1cc2cc([N+](=O)[O-])ccc2oc1=O, the melting point was 200 °C.
Compound ClC(COCC(Cl)C(Cl)(Cl)Cl)C(Cl)(Cl)Cl (stereo unspecified) has a melting point of -50 °C.
Compound O=C(OCCc1cc([N+](=O)[O-])c(CCOC(=O)c2ccccc2)cc1[N+](=O)[O-])c1ccccc1 has a melting point of 157 to 158 °C.
For CCC(c1ccc(O)c(C)c1)C(CC)c1ccc(O)c(C)c1 (stereo unspecified), the melting point was 145 °C.
Work on CCOC(=O)c1cccc(-c2nccs2)c1 yielded a melting point of 50 to 52 °C.
Compound C=C1C(=O)C2(C)CCC1C2(C)C (stereo unspecified) has a melting point of 45 °C.
For O=C(O)c1cccc(-c2ccco2)c1, the melting point was 157 to 158 °C.
For CC1(C)OC2CC3C4CCC5=CC(=O)C=CC5(C)C4C(O)CC3(C)C2(C(=O)CO)O1 (stereo unspecified), the melting point was 274 °C.
Work on CSc1nc2[nH]c(=S)n(-c3ccccc3C(=O)O)c(=O)c2n1C yielded a melting point of 284 °C.
In the case of O=C(O)C=Cc1c[nH]cn1, the melting point is reported as 225 °C.
For CC(=O)OC(C(=O)Cl)c1ccccc1 (stereo unspecified), the melting point was 36 °C.
Compound Nc1nc(-c2ccc(Br)cc2)cc(C(F)(F)F)n1 has a melting point of 216 to 218 °C.
Compound O=C(NCCc1ncc(C(F)(F)F)cc1Cl)c1ccccc1C(F)(F)F has a melting point of 118 °C.
Compound CC12CCC3C(CCC4=CC(=O)C=CC43C)C1CCC(=O)O2 (stereo unspecified) has a melting point of 218 °C.
With O=[N+]([O-])c1ccccc1-n1cccc1 the melting point was 59 °C.
With Cc1ccc([N+](=O)[O-])c(CCl)c1 the melting point was 41 to 47 °C.
Work on c1ccc2sc(SNC3CCCCC3)nc2c1 yielded a melting point of 98 °C.
Compound CN1CCN2c3ncccc3Cc3ccccc3C2C1 (stereo unspecified) has a melting point of 115 °C.
Compound COc1cc(I)c(OC)cc1I has a melting point of 171 to 173 °C.
O=[N+]([O-])c1ccc(Nc2ccc(O)cc2)c([N+](=O)[O-])c1 showed a melting point of 194 °C.
Work on COc1c(OC)c(OC(C)=O)c2c(OC)cccc2c1OC(C)=O yielded a melting point of 69.5 °C.
Compound OC1CC(O)C(O)CO1 (stereo unspecified) has a melting point of 69 to 72 °C.
CC(=O)C1(O)CCC2C3C=C(C)C4=CC(=O)CCC4(C)C3CCC21C (stereo unspecified) showed a melting point of 219 °C.
In the case of CCOC(=O)C=Cc1ccccc1N, the melting point is reported as 76 to 77 °C.
For CC(C)C(C)N (stereo unspecified), the melting point was -50 °C.
CC1C(c2ccc(Cl)cc2)SC(=O)N1C(=O)NC1CCCCC1 (stereo unspecified) gave a melting point of 108 °C.
In the case of CC(C)=CCCC(C)C1CCC2C3CC=C4CC(O)CCC4(C)C3CCC12C (stereo unspecified), the melting point is reported as 122 °C.
In the case of COc1c2occc2c(OC)c2c(=O)cc(C)oc12, the melting point is reported as 155 °C.
For CCSC(C)C, the melting point was -122 °C.
With NS(=O)(=O)c1cc(F)ccc1F the melting point was 141 °C.
Work on NC(=S)c1ccc(C2OCCO2)cc1 yielded a melting point of 150 to 154 °C.
Compound Cc1ccccc1/C=C(\C#N)c1nc2ccccc2s1 has a melting point of 148 °C.
Work on O=C(O)C1COc2ccccc2O1 (stereo unspecified) yielded a melting point of 125 to 128 °C.
Work on Cc1ccc(C#N)cc1Br yielded a melting point of 41 °C.
With COC(=O)c1nc[nH]c1C(=O)OC the melting point was 197 to 201 °C.
In the case of CC(C(=O)O)N(C)C(=O)OC(C)(C)C (stereo unspecified), the melting point is reported as 90 °C.
CC1CCCC(O)C1 (stereo unspecified) showed a melting point of -5.5 °C.
Cc1ccc(S(=O)(=O)O)c(C)c1 gave a melting point of 57 °C.
CCCCCCCCCCCCC#N gave a melting point of 9.7 °C.
Compound CCOc1ccc(-c2nnc3n2NC(c2ccccc2)S3)cc1 (stereo unspecified) has a melting point of 118 °C.
In the case of Cc1cnc(N)c([N+](=O)[O-])c1, the melting point is reported as 190 to 195 °C.
With O=S(=O)(Cl)c1cc(F)c(Br)cc1F the melting point was 35 °C.
Compound CC1=C/C(=N/NC(N)=O)C(C(C)C)CC1 (stereo unspecified) has a melting point of 219 to 220 °C.
Cc1cn(CCC(=O)O)c2ccccc12 gave a melting point of 87 to 88 °C.
Compound Clc1ccc(OCc2ccccc2)cc1 has a melting point of 70 to 72 °C.
Compound COc1ccc(C(=O)CCCCl)c(OC)c1 has a melting point of 58 to 60 °C.
With CC12CCCCC1CCC1C2CCC2(C)C(OCc3ccccc3)CCC12 (stereo unspecified) the melting point was 160 °C.
Work on CC=Cc1cc2c(c(=O)o1)C(=O)C(O)C(C)O2 (stereo unspecified) yielded a melting point of 222 °C.
Compound CCC1CCc2ccccc2C1 (stereo unspecified) has a melting point of -42.8 °C.
Work on O=C(CCCl)N1CCc2ccccc21 yielded a melting point of 83 to 85 °C.
Work on CCOP(=S)(OCC)SCC(=O)NC(C)C yielded a melting point of 28.5 °C.
CC(C)(C)C(Br)Br showed a melting point of 14 °C.
Compound O=C(c1ccccc1)c1ccc(N2CCOCC2)cc1 has a melting point of 142 to 145 °C.
With Nc1ccc(S(=O)(=O)c2ccc([N+](=O)[O-])cc2)cc1 the melting point was 170 °C.
Nc1ccc2c(c1)OCCO2 showed a melting point of 28 °C.
Compound O=C1C(c2ccc(C3=[N+]([O-])c4cc([N+](=O)[O-])ccc4C3=O)cc2)=[N+]([O-])c2cc([N+](=O)[O-])ccc21 has a melting point of 294 °C.
Work on Cc1cc(C)c(NC(=O)C(C(F)(F)F)C(F)(F)F)c(C)c1 yielded a melting point of 189 °C.
In the case of CCOC(=O)c1c(C)nc2sc3c(c2c1N)CCCC3, the melting point is reported as 135 to 136 °C.
Work on COc1cc(CC(=O)O)c([N+](=O)[O-])cc1OC yielded a melting point of 111 to 112 °C.
In the case of CC(=O)Nc1ccc(-c2cc(C(=O)O)c3ccccc3n2)cc1, the melting point is reported as 274 to 276 °C.
Compound C=C(C)CCCCCCCCC has a melting point of -40 °C.
With COc1ccc(C(C)(C)c2ccc(OC)cc2)cc1 the melting point was 54 to 59 °C.
ICCCCCCCCI gave a melting point of 16 to 21 °C.
For CN1CCOc2cc(S(=O)(=O)Cl)ccc21, the melting point was 66 to 68 °C.
C1COCCOCCNCCOCCOCCN1 gave a melting point of 111 to 115 °C.
For O=C(O)c1c[nH]c(=O)c(Cl)c1, the melting point was 284 to 286 °C.
In the case of C=CC1=C(C(=O)O)N2C(=O)C(NC(=O)C(=NOCC(=O)O)c3csc(N)n3)C2SC1 (stereo unspecified), the melting point is reported as 222 °C.
In the case of CCOC(=O)c1cc(C)n(Cc2ccccc2)n1, the melting point is reported as 37 °C.
O=C1C=CC2=CC(=O)C=CC(=C1)C2 gave a melting point of 122 °C.
For COC(=O)c1ccc(O)c(O)c1, the melting point was 136 °C.
Compound Cc1onc(-c2ccccc2)c1N=C=S has a melting point of 73 to 77 °C.
Work on OCc1ccc(N2CCCCC2)cc1 yielded a melting point of 148 to 149 °C.
In the case of Nc1cc2ccccc2c(Br)n1, the melting point is reported as 144 to 146 °C.
Compound CN(C)c1ccc(/C=C(\C#N)c2nc3ccccc3n2C)cc1 has a melting point of 151 °C.
CC(C)C(CO)CCC(C)(O)C(O)C(C)C (stereo unspecified) showed a melting point of 60 °C.
In the case of Cc1ccc(C(=O)NS(=O)(=O)c2ccc(N)cc2)cc1C, the melting point is reported as 222 °C.
With NC(=O)CC(O)C(=O)O (stereo unspecified) the melting point was 148 °C.
Work on FC(F)(F)COCC(F)(F)F yielded a melting point of less than 25 °C.
In the case of c1ccc2c(-c3nnc(-c4cccc5ccccc45)o3)cccc2c1, the melting point is reported as 177 °C.
In the case of Cc1c(C)n(C=O)c2ccccc12, the melting point is reported as 89 °C.
In the case of COc1ccc(C(=O)O)c(O)c1, the melting point is reported as 157 to 159 °C.
CN(C)C1CSSC1 showed a melting point of 177 °C.
Work on Nc1ccccc1-c1ccccc1N yielded a melting point of 81 °C.
Compound CN1C(=O)CSC1=S has a melting point of 72 to 73 °C.
Work on COC(=O)COc1ccc(Cl)cc1Cl yielded a melting point of 119 °C.
With O=S(=O)(O)c1ccc(Cl)cc1 the melting point was 102 °C.
Work on CC(=O)N1CCN(c2ccc(OCC3COC(Cn4ccnc4)(c4ccc(Cl)cc4Cl)O3)cc2)CC1 (stereo unspecified) yielded a melting point of 146 °C.
For O=C(OOC(=O)c1ccc(Cl)cc1Cl)c1ccc(Cl)cc1Cl, the melting point was 106 °C.
In the case of ClCc1cc(Cl)cc(Cl)c1, the melting point is reported as 36 °C.
O=C1CC2(CCCC2)CC(=O)O1 showed a melting point of 64 to 66 °C.
In the case of O=C(Cl)c1cc2cc(Br)ccc2s1, the melting point is reported as 99 to 102 °C.
With O=C(Nc1ccc(F)cc1)Nc1nnc(-c2ccc(Cl)cc2)o1 the melting point was 268 to 270 °C.
Work on Nc1ccc(CCC(=O)O)cc1 yielded a melting point of 134 °C.
In the case of COC(=O)c1ccc(O)c(Cl)c1, the melting point is reported as 107 °C.
Compound CCCCCCCCCCCCCCCCCCCCCCCCCCCCCCO has a melting point of 88 °C.
O=C(O)c1c(O)cccc1O showed a melting point of 160 to 165 °C.
In the case of CC(C)(C)OC(=O)N1CCN(CCO)CC1, the melting point is reported as 39 to 43 °C.
CN(C)c1ccc(C(=O)C(=O)c2ccc(N(C)C)cc2)cc1 gave a melting point of 202 °C.
Work on CCCCCc1cc(O)c2c(c1)OC(C)(C)C1CCC(C)=CC21 (stereo unspecified) yielded a melting point of 200 °C.
For Cc1nc(-c2ccccc2)sc1S(=O)(=O)Cl, the melting point was 76 to 78 °C.
CCCCCC1CCCC1 showed a melting point of -83 °C.
